# Experimental data published in patent US20130197090A1, “POSTURAL STABILITY AND INCIDENT FUNCTIONS IN PATIENTS” (Chelsea Therapeutics, Inc., priority 2012, published 2013).
# Experiments:
# MAO-A = target: T1, MAO-A (Homo sapiens, UniProt P21397); conditions: cited from earlier work
# T1 sequence (P21397 1-527): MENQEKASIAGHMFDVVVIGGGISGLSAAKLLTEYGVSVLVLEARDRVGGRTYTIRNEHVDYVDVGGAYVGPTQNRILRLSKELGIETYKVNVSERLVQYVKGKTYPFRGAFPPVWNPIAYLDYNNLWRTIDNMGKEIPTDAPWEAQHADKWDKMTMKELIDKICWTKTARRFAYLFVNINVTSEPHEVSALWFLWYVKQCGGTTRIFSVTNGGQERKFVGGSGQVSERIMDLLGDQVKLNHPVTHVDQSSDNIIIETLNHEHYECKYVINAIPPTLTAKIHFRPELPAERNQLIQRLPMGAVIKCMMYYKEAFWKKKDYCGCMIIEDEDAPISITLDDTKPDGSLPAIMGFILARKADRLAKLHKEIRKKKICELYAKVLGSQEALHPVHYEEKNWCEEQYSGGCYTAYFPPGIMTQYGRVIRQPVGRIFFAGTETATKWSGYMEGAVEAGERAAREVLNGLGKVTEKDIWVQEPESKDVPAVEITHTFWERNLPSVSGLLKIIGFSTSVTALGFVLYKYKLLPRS
# PD patients [1] = assay: MDS-UPDRS score, study of Example 1; type: in vivo, human; conditions: for MDS-UPDRS, Baseline: before treatment
# Protocol: (§1) A multi-center, double-blind, randomized, parallel-group, placebo-controlled study was carried out to assess the clinical effect of droxidopa over the course of 10 weeks for reducing falls in PD patients. The study included a two week double-blind dose-titration period followed by an eight week double-blind treatment period. A screening period (up to 14 days) was used to determine patient eligibility. Throughout the study, visit specific assessments were conducted three hours (an acceptable range was two to five hours) following the patient's first daily dose of droxidopa. Patients who successfully passed all screening assessments continued to the baseline measurements. At the end of the baseline visit, eligible patients were randomized to treatment with either droxidopa or placebo (randomization was double-blind, 1:1). Patients entered a double-blind titration phase at 100 mg TID of droxidopa or matching placebo. Treatment was escalated in 100 mg TID increments to a maximum of 600 mg TID. Upon completion of the dose titration phase, patients returned for a study visit after 8 weeks of double-blind treatment at their titrated dose. The study included 27 placebo-treated patients and 24 droxidopa-treated patients.
# (§2) Patients in the study were evaluated using the Hoehn and Yahr rating scale and the Movement Disorder Society-sponsored revised version of the UPDRS to evaluate the effect of treatment as evidenced by these two scales. A baseline score for each patient using each test was established prior to treatment with droxidopa or the placebo, and a post-treatment score for each test was established at the end of the study.
# The UPDRS likewise is a useful test for evaluating improvements in symptoms that can be a cause of falls in PD patients since this scale is used to assess the severity of motor and non-motor symptoms in PD patients. In the present study, droxidopa-treated patients experienced a 15.8 point improvement (i.e., decrease) from baseline compared with an 11.4 point improvement in placebo-treated patients. […] The 4.4 point treatment difference favoring droxidopa in the total UPDRS score reflects pronounced improvement in the motor features of PD and mirrors the improvements observed on the Hoehn and Yahr rating scale score.
# PD patients [2] = assay: Hoehn and Yahr rating scale score, study of Example 1; type: in vivo, human; conditions: for Hoehn and Yahr, Baseline: before treatment
# Protocol: as §1, §2
# Since the Hoehn and Yahr rating scale is heavily weighted towards postural instability as the primary index of disease severity, it is believed that the Hoehn and Yahr score serves as a useful measure of the effect of treatment on NOH in a PD patient population. At the end of this study, droxidopa-treated patients experienced, on average, an improvement from baseline (i.e., a reduction in the score) in their Hoehn and Yahr rating scale score (change: −0.4 points) while placebo-treated patients experienced no change from baseline in their Hoehn and Yahr rating scale score, resulting in a notable treatment difference of −0.4 units favoring droxidopa. Based on an analysis of Hoehn and Yahr rating scale scores in individual patients, a higher proportion of droxidopa-treated patients experienced an improvement in their Hoehn and Yahr rating scale score at the end of the study (10 of 24 patients; 42%) compared with placebo-treated patients (5 of 27 patients; 19%). Conversely, a lower proportion of droxidopa-treated patients experienced a worsening in their Hoehn and Yahr rating scale score at the end of the study (3 of 24 patients; 13%) compared with placebo-treated patients (10 of 27 patients; 37%).
# PD patients [3] = assay: Patient falls, double-blind placebo-controlled study of Example 2; type: in vivo, human
# Protocol: A multi-center, double-blind, randomized, placebo-controlled study was carried out to assess the clinical effect of droxidopa for reducing falls in PD patients. The study included a two week double-blind dose-titration period followed by an eight week double-blind treatment period. A screening period (up to 14 days) was used to determine patient eligibility. The patients were then randomized into a treatment group and a placebo group. Patients entered a double-blind titration phase at 100 mg TID of droxidopa or matching placebo. Treatment was escalated in 100 mg TID increments to a maximum of 600 mg TID. Upon completion of the dose titration phase, patients returned for study visits after 1, 2, 4, and 8 weeks of double-blind treatment at their titrated dose. The study included 78 placebo-treated patients and 69 droxidopa-treated patients. […] This is illustrated in FIG. 9.
# [4] = tested on: PD patients suffering from "freezing of gait"; conditions: Narabayashi et al. 1981; cited from earlier work
# PD patients [5] = assay: Patient-reported falls, double-blind placebo-controlled study of Example 1; type: in vivo, human
# Protocol: A multi-center, double-blind, randomized, parallel-group, placebo-controlled study was carried out to assess the clinical effect of droxidopa over the course of 10 weeks for reducing falls in PD patients. The study included a two week double-blind dose-titration period followed by an eight week double-blind treatment period. A screening period (up to 14 days) was used to determine patient eligibility. Throughout the study, visit specific assessments were conducted three hours (an acceptable range was two to five hours) following the patient's first daily dose of droxidopa. Patients who successfully passed all screening assessments continued to the baseline measurements. At the end of the baseline visit, eligible patients were randomized to treatment with either droxidopa or placebo (randomization was double-blind, 1:1). Patients entered a double-blind titration phase at 100 mg TID of droxidopa or matching placebo. Treatment was escalated in 100 mg TID increments to a maximum of 600 mg TID. Upon completion of the dose titration phase, patients returned for a study visit after 8 weeks of double-blind treatment at their titrated dose. The study included 27 placebo-treated patients and 24 droxidopa-treated patients. During the study, the placebo-treated patients reported a total of 197 falls compared with 79 falls reported by the droxidopa-treated patients. […] Standardizing the above data to the number of falls per patient per week, patients randomized to the placebo treatment experienced an average of 0.93 falls per patient per week. Patients randomized to the droxidopa treatment experienced an average of 0.39 falls per patient per week. This represents an approximate 60% reduction in the number of falls reported by droxidopa-treated patients compared with placebo-treated patients. […] In the study, it was evident that a number of patients in each group was not normally distributed—i.e., a few patients in each group experienced many more falls than the remaining patients in each respective group. A sensitivity analysis was performed to assess the robustness of the treatment effect in light of this disparity in falls within each group. The beneficial treatment effect favoring droxidopa was evident even when the top two patients or the top five patients who experienced the highest number of falls in each treatment group were removed from the analysis. See FIG. 4 and FIG. 5, respectively. When the top two patients in each treatment group were excluded, patients randomized to the placebo group experienced an average of 0.54 falls per patient per week compared with 0.16 falls per patient per week in patients randomized to the droxidopa group. Similarly, when the top five patients in each treatment group were excluded, patients randomized to the placebo group experienced an average of 0.20 falls per patient per week compared with 0.10 falls per patient per week in patients randomized to the droxidopa group.
# [6] = patients with recurrent falls, versus placebo
structure (smiles),measurement,setting,value
O=C(NCCN1CCOCC1)c1ccc(Cl)cc1 [moclobemide],selectivity for MAO-A over MAO-B,MAO-A,approximately three times more selective for MAO-A than MAO-B
"NC(C(=O)O)C(O)c1ccc(O)c(O)c1 (stereo not drawn) [droxidopa, threo-3-(3,4-dihydroxyphenyl) serine]","MDS-UPDRS, End of Study",PD patients [1]; Non-recurrent Fallers (n = 15),58.1
same,"MDS-UPDRS, Baseline",PD patients [1]; Non-recurrent Fallers (n = 15),74.3
same,"MDS-UPDRS, End of Study",PD patients [1]; Recurrent Fallers (n = 9),77.7
same,"MDS-UPDRS, Baseline",PD patients [1]; Recurrent Fallers (n = 9),89.1
same,improvement (decrease) from baseline in UPDRS score,"PD patients [1]; end of study, all droxidopa-treated patients, placebo 11.4",15.8 point
same,improvement in UPDRS score,PD patients [1]; [6],marked improvement
same,each of the four components of the UPDRS score,PD patients [1]; versus placebo,showed benefits for droxidopa compared with placebo
same,treatment difference favoring droxidopa in the total UPDRS score,PD patients [1]; versus placebo,4.4 point
same,"Hoehn and Yahr, End of Study",PD patients [2]; Non-recurrent Fallers (n = 15),1.4
same,"Hoehn and Yahr, Baseline",PD patients [2]; Non-recurrent Fallers (n = 15),1.8
same,"Hoehn and Yahr, End of Study",PD patients [2]; Recurrent Fallers (n = 9),1.7
same,"Hoehn and Yahr, Baseline",PD patients [2]; Recurrent Fallers (n = 9),1.9
same,"Change in Hoehn and Yahr Rating Scale Score: Improved, %","PD patients [2]; end of study, N = 24",42%
same,"Change in Hoehn and Yahr Rating Scale Score: No Change, %","PD patients [2]; end of study, N = 24",46%
same,"Change in Hoehn and Yahr Rating Scale Score: Worsened, %","PD patients [2]; end of study, N = 24",13%
same,change from baseline in Hoehn and Yahr rating scale score,"PD patients [2]; end of study, all droxidopa-treated patients, average, placebo no change",−0.4 points
same,treatment difference in Hoehn and Yahr rating scale score favoring droxidopa,"PD patients [2]; end of study, versus placebo",−0.4 units
same,improvement in Hoehn and Yahr score,PD patients [2]; [6],marked improvement
same,rate of falls per patient per week,"PD patients [3]; 69 droxidopa-treated, 78 placebo-treated patients, titrated 100-600 mg TID",visibly less than in the placebo treatment group
same,"treatment effect on falls, sensitivity analysis","PD patients [3]; top two, top five and top ten patients with highest number of falls in each group removed",beneficial treatment effect favoring droxidopa was again evident
same,effect on freezing of gait,[4],a beneficial effect was reported
same,reduction in the number of falls compared with placebo-treated patients,PD patients [5],~60%
same,total number of falls reported during the study,"PD patients [5]; 10 weeks, 24 droxidopa-treated patients, titrated 100-600 mg TID, placebo 197",79 falls
same,treatment effect on total number of patient falls,PD patients [5]; data from the first 10 days of the study removed,beneficial treatment effect favoring droxidopa on the total number of patient falls remained evident
same,average falls per patient per week,"PD patients [5]; full analysis set, placebo 0.93",0.39 falls per patient per week
same,patients who experienced recurrent falls,"PD patients [5]; of 24 droxidopa-treated patients, placebo 12 of 27",nine
same,average falls per patient per week,"PD patients [5]; top five patients with highest number of falls in each group excluded, placebo 0.20",0.10 falls per patient per week
same,average falls per patient per week,"PD patients [5]; top two patients with highest number of falls in each group excluded, placebo 0.54",0.16 falls per patient per week
same,cumulative number of patient-recorded falls over time,PD patients [5]; versus placebo,relative increase in the number of falls in the placebo treatment group over time was consistently larger compared with the relative increase over time in the droxidopa treatment group
